Data: PubChem BioAssay AID248 (DTP/NCI, 2004)
“And” between values parts separate entries of the source, which are not always exact repeats. Identical values can stand only once. Toxic doses and inconclusive results are not listed. Cut-off read from the data, not from the text of the source: active = T/C of 150% or more; inactive = T/C below 125%.

Test system: L1210 leukemia ip in BDF1 mice, survival T/C
Experiment: NCI In Vivo Anticancer Drug Screen. Data for tumor model L1210 Leukemia (intraperitoneal) in B6D2F1 (BDF1) mice
Details: endpoint: mean survival time, higher = longer survival
Summary of the method: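 Transplanted-tumor mice were given test agent; controls received vehicle only. Survival readings from the two groups were divided (treated over control).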

[1] = dose: 100.0 mg/kg/injection, schedule: Q01DX009 (ip), vehicle: Klucel (hydroxypropylcellulose) (HPC)
[2] = dose: 200.0 mg/kg/injection, schedule: Q01DX009 (ip), vehicle: Klucel (hydroxypropylcellulose) (HPC)
[3] = dose: 400.0 mg/kg/injection, schedule: Q01DX009 (ip), vehicle: Klucel (hydroxypropylcellulose) (HPC)
[4] = dose: 100.0 mg/kg/injection, schedule: Q04DX003 (ip), vehicle: saline with Tween-80
[5] = dose: 50.0 mg/kg/injection, schedule: Q01DX001 (ip), vehicle: saline
[6] = dose: 100.0 mg/kg/injection, schedule: Q01DX001 (ip), vehicle: saline
[7] = dose: 200.0 mg/kg/injection, schedule: Q01DX001 (ip), vehicle: saline
[8] = dose: 100.0 mg/kg/injection, schedule: Q01DX001 (ip), vehicle: carboxymethylcellulose (CMC)
[9] = dose: 200.0 mg/kg/injection, schedule: Q01DX001 (ip), vehicle: carboxymethylcellulose (CMC)
[10] = dose: 400.0 mg/kg/injection, schedule: Q01DX001 (ip), vehicle: carboxymethylcellulose (CMC)
[11] = dose: 50.0 mg/kg/injection, schedule: Q01DX001 (ip), vehicle: carboxymethylcellulose (CMC)
[12] = dose: 100.0 mg/kg/injection, schedule: Q01DX009 (ip), vehicle: saline with Tween-80
[13] = dose: 200.0 mg/kg/injection, schedule: Q01DX009 (ip), vehicle: saline with Tween-80
[14] = dose: 100.0 mg/kg/injection, schedule: Q04DX003 (ip), vehicle: Klucel (hydroxypropylcellulose) (HPC)
[15] = dose: 100.0 mg/kg/injection, schedule: Q01DX009 (ip), vehicle: saline
[16] = dose: 100.0 mg/kg/injection, schedule: Q04DX002 (ip), vehicle: saline with Tween-80
[17] = dose: 200.0 mg/kg/injection, schedule: Q04DX002 (ip), vehicle: saline with Tween-80
[18] = dose: 400.0 mg/kg/injection, schedule: Q04DX002 (ip), vehicle: saline with Tween-80
[19] = dose: 50.0 mg/kg/injection, schedule: Q04DX003 (ip), vehicle: saline with Tween-80
[20] = dose: 200.0 mg/kg/injection, schedule: Q04DX003 (ip), vehicle: saline with Tween-80
[21] = dose: 400.0 mg/kg/injection, schedule: Q01DX009 (ip), vehicle: saline with Tween-80
[22] = dose: 400.0 mg/kg/injection, schedule: Q04DX003 (ip), vehicle: saline with Tween-80

Measured: T/C

CCOc1ccc(-n2cnc3c(=O)[nH]c(N)nc32)cc1
inactive: [1] 93 % of control | [2] 91 % of control | [3] 91 % of control

CCC(C)C(CN)(CCN(C)CC)c1cccc2ccccc12 (configuration not stated)
inactive: [4] 90 % of control

Nc1nc2c(nc(Br)n2C2CC(O)C(CO)O2)c(=O)[nH]1 (configuration not stated)
inactive: [5] 102 % of control | [6] 102 % of control | [7] 98 % of control | dose: 400.0 mg/kg/injection, schedule: Q01DX001 (ip), vehicle: saline 98 % of control

C=CCN(C)c1ccc(C(=O)OC)cc1
inactive: [8] 102 % of control | [9] 94 % of control | [10] 100 % of control

CC(=O)NC(C)(CCOCc1ccccc1)C(=O)O (configuration not stated)
inactive: [11] 94 % of control | [8] 100 % of control | [9] 110 % of control | [10] 96 % of control

Cc1ccc2[nH]c(=O)oc(=O)c2c1
inactive: [12] 105 % of control | [13] 102 % of control

OC1(C2(O)CCC2)CCC1
inactive: [11] 98 % of control | [8] 95 % of control | [9] 95 % of control | [10] 101 % of control

Cn1[nH]c(=O)c2ncccc2c1=O
inactive: dose: 100.0 mg/kg/injection, schedule: Q04DX002 (ip), vehicle: Klucel (hydroxypropylcellulose) (HPC) 97 % of control | dose: 100.0 mg/kg/injection, schedule: Q04DX002 (ip), vehicle: saline 94 % of control | dose: 200.0 mg/kg/injection, schedule: Q04DX002 (ip), vehicle: Klucel (hydroxypropylcellulose) (HPC) 97 % of control | dose: 200.0 mg/kg/injection, schedule: Q04DX002 (ip), vehicle: saline 94 % of control | dose: 400.0 mg/kg/injection, schedule: Q04DX002 (ip), vehicle: saline 97 % of control

CN1CN(c2ccccc2)C2(CCN(Cc3nc4ccccc4[nH]3)CC2)C1=O
inactive: dose: 75.0 mg/kg/injection, schedule: Q04DX003 (ip), vehicle: Klucel (hydroxypropylcellulose) (HPC) 100 % of control | dose: 150.0 mg/kg/injection, schedule: Q04DX003 (ip), vehicle: Klucel (hydroxypropylcellulose) (HPC) 107 % of control | dose: 300.0 mg/kg/injection, schedule: Q04DX003 (ip), vehicle: Klucel (hydroxypropylcellulose) (HPC) 105 % of control

COc1ccc([N+](=O)[O-])cc1NC(=O)N(Cc1ccccc1)c1ccccc1
inactive: dose: 50.0 mg/kg/injection, schedule: Q01DX009 (ip), vehicle: Klucel (hydroxypropylcellulose) (HPC) 96 % of control | [1] 93 % of control | [2] 96 % of control

Cc1ccc(CNc2ccc(Cl)cc2)cc1
inactive: [1] 95 % of control | [14] 96 % of control | [2] 104 % of control | dose: 200.0 mg/kg/injection, schedule: Q04DX003 (ip), vehicle: Klucel (hydroxypropylcellulose) (HPC) 98 % of control | dose: 400.0 mg/kg/injection, schedule: Q04DX003 (ip), vehicle: Klucel (hydroxypropylcellulose) (HPC) 96 % of control

CCCCCCC(CCCCCC)CC1CCCC1
inactive: dose: 50.0 mg/kg/injection, schedule: Q04DX002 (sc), vehicle: olive oil, sesame oil, peanut oil 103 % of control | dose: 100.0 mg/kg/injection, schedule: Q04DX002 (sc), vehicle: olive oil, sesame oil, peanut oil 97 % of control | dose: 200.0 mg/kg/injection, schedule: Q04DX002 (sc), vehicle: olive oil, sesame oil, peanut oil 97 % of control

C[n+]1csc(=S)[nH]1
inactive: [15] 98 % of control

Cc1nsc(N(NC(=O)c2ccccc2)C(=O)c2ccccc2)n1
inactive: dose: 75.0 mg/kg/injection, schedule: Q01DX001 (ip), vehicle: carboxymethylcellulose (CMC) 95 % of control

Cc1n[nH]c(C)c1C(C)C
inactive: [5] 103 % of control | [6] 101 % of control | [7] 86 % of control

CN1C2CCCCC1C1CCCCC2N1C
inactive: dose: 75.0 mg/kg/injection, schedule: Q01DX001 (ip), vehicle: saline 105 % of control | dose: 150.0 mg/kg/injection, schedule: Q01DX001 (ip), vehicle: saline 94 % of control | dose: 300.0 mg/kg/injection, schedule: Q01DX001 (ip), vehicle: saline 98 % of control

N#C/C(=C\C=C\C1CCCCC1)C1CCC([N+](=O)[O-])CC1 (configuration not stated)
inactive: [16] 105 % of control | [17] 94 % of control | [18] 91 % of control

O=C(CCl)N1CCC(CC2(c3cc4ccccc4[nH]3)OCCO2)CC1
inactive: dose: 100.0 mg/kg/injection, schedule: Q04DX002 (ip), vehicle: other 97 % of control | dose: 200.0 mg/kg/injection, schedule: Q04DX002 (ip), vehicle: other 90 % of control | dose: 400.0 mg/kg/injection, schedule: Q04DX002 (ip), vehicle: other 94 % of control

CCCCOC(=O)CC(=O)OC
inactive: dose: 100.0 mg/kg/injection, schedule: Q01DX009 (ip), vehicle: acetone 93 % of control | dose: 100.0 mg/kg/injection, schedule: Q04DX003 (ip), vehicle: acetone 100 % of control | dose: 200.0 mg/kg/injection, schedule: Q01DX009 (ip), vehicle: acetone 90 % of control | dose: 200.0 mg/kg/injection, schedule: Q04DX003 (ip), vehicle: acetone 103 % of control | dose: 400.0 mg/kg/injection, schedule: Q01DX009 (ip), vehicle: acetone 93 % of control | dose: 400.0 mg/kg/injection, schedule: Q04DX003 (ip), vehicle: acetone 107 % of control

Cc1ccc(NC(N)=S)cc1
inactive: dose: 25.0 mg/kg/injection, schedule: Q04DX003 (ip), vehicle: Klucel (hydroxypropylcellulose) (HPC) 107 % of control | dose: 50.0 mg/kg/injection, schedule: Q04DX003 (ip), vehicle: Klucel (hydroxypropylcellulose) (HPC) 98 % of control | [14] 101 % of control

Cc1c(Cl)cccc1NC(=S)NC(=O)/C=C/c1ccccc1
inactive: [19] 96 % of control | dose: 100.0 mg/kg/injection, schedule: Q01DX001 (ip), vehicle: saline with Tween-80 90 % of control | [12] 98 % of control and 92 % of control | [16] 96 % of control and 87 % of control | [4] 93 % of control and 102 % of control | [13] 95 % of control and 98 % of control | [17] 107 % of control and 116 % of control | [20] 101 % of control | dose: 400.0 mg/kg/injection, schedule: Q01DX001 (ip), vehicle: saline with Tween-80 93 % of control | [21] 95 % of control and 90 % of control | [18] 111 % of control and 112 % of control | [22] 102 % of control and 88 % of control

c1ccc(-c2cc(-c3ccccc3)[s+]s2)cc1
inactive: dose: 50.0 mg/kg/injection, schedule: Q01DX009 (ip), vehicle: saline with Tween-80 100 % of control | [12] 90 % of control | [4] 113 % of control | [20] 92 % of control | [22] 88 % of control

CCOP(=S)(OCC)Oc1cccc(NC(=O)CC)c1
inactive: [12] 102 % of control | [13] 104 % of control | [21] 93 % of control

O=C(O)c1ccccc1C(=O)Nc1ccc([N+](=O)[O-])cc1
inactive: dose: 25.0 mg/kg/injection, schedule: Q04DX003 (ip), vehicle: saline with Tween-80 93 % of control | [19] 90 % of control | [4] 98 % of control

CC(C)CC(N=C(NC(CC(C)C)C(=O)O)c1ccccc1)C(=O)O (configuration not stated)
inactive: [1] 108 % of control | [2] 105 % of control | [3] 95 % of control

NCc1ccc(Cl)cc1Cl
inactive: [15] 103 % of control | dose: 200.0 mg/kg/injection, schedule: Q01DX009 (ip), vehicle: saline 108 % of control

O=[N+]([O-])c1ccccc1S(=O)(=O)Nc1ccccc1F
inactive: [1] 105 % of control | [2] 100 % of control | [3] 101 % of control

COc1ccc2c(c1C)CCC13CC(C)C(CC21)OC3=O (configuration not stated)
inactive: dose: 100.0 mg/kg/injection, schedule: Q01DX001 (ip), vehicle: Klucel (hydroxypropylcellulose) (HPC) 102 % of control | dose: 200.0 mg/kg/injection, schedule: Q01DX001 (ip), vehicle: Klucel (hydroxypropylcellulose) (HPC) 101 % of control | dose: 400.0 mg/kg/injection, schedule: Q01DX001 (ip), vehicle: Klucel (hydroxypropylcellulose) (HPC) 109 % of control
